In brackets after ≈: the same amount, converted by molar mass. Where two headings read alike, the source gives them in different places.
Legend:
[1] = tested on: chloroquine-sensitive NF54 strain of P. falciparum; test: In vitro antimalarial semiautomated microdilution assay ([3H]-hypoxanthine incorporation), NF54 strain; assay type: cell-based, Plasmodium falciparum; conditions: Plasmodium falciparum
How it was run: (§1)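 Asynchronous stock-culture parasites (intraerythrocytic forms), serial compound dilutions; readout [3H]-hypoxanthine uptake; IC50 via Logit regression.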

[2] = tested on: ANKA strain of P. berghei; test: Single dose STI in vivo screen in infected mice; design: species or system Plasmodium berghei; conditions: for Survival (days) 10 mg/kg po: single 10 mg/kg po in 3% ethanol and 7% Tween 80; for Survival (days) 10 mg/kg po / Survival (days) 10 mg/kg SSV po / Survival (days) 10 mg/kg sc: untreated 6-7 days; for Activity (%) 10 mg/kg po: single 10 mg/kg po in 3% ethanol and 7% Tween 80 on day 1 post-infection; for Activity (%) 10 mg/kg po / Activity (%) 10 mg/kg SSV po / Activity (%) 10 mg/kg sc: percent reduction in parasitemia on day 3; for Survival (days) 10 mg/kg SSV po: single 10 mg/kg po in SSV; for Activity (%) 10 mg/kg SSV po: single 10 mg/kg po in standard suspending vehicle (SSV) on day 1 post-infection; for Survival (days) 10 mg/kg sc: single 10 mg/kg sc in 3% ethanol and 7% Tween 80; for Activity (%) 10 mg/kg sc: single 10 mg/kg sc in 3% ethanol and 7% Tween 80 on day 1 post-infection
[3] = tested on: chloroquine-resistant K1 strain of P. falciparum; test: In vitro antimalarial semiautomated microdilution assay ([3H]-hypoxanthine incorporation), K1 strain; assay type: cell-based, Plasmodium falciparum; conditions: Plasmodium falciparum
How it was run: as §1

[4] = chloroquine-sensitive NF54 strain, 72 h incubation, read-out: IC50 (ng/ml) NF54
[5] = chloroquine-resistant K1 strain, 72 h incubation, read-out: IC50 (ng/ml) K1
[6] = NF54, 72 h, read-out: IC50 (ng/ml) NF54, chloroquine-sensitive NF54 strain, 72 h incubation
[7] = K1, 72 h, read-out: IC50 (ng/ml) K1, chloroquine-resistant K1 strain, 72 h incubation

Row | Structure (SMILES) | IC50 [1, 4] [ng/mL] | Survival (days) 10 mg/kg po [2] [days] | Activity (%) 10 mg/kg po [2] | Survival (days) 10 mg/kg SSV po [2] | Activity (%) 10 mg/kg SSV po [2] | Survival (days) 10 mg/kg sc [2] [days] | Activity (%) 10 mg/kg sc [2] | IC50 [3, 5] [ng/mL] | IC50 [1, 6] [ng/mL] | IC50 [3, 7] [ng/mL]
1 | O=C(O)c1ccc(C[C@H]2CC[C@]3(CC2)OOC2(O3)C3CC4CC(C3)CC2C4)cc1 (stereo partly drawn) [OZ214] | > 10 | 6.3 | 44% | 7.3 days | 54% | 7.7 | 65% | > 10 |  | 
2 | COC(=O)c1ccc(C2(c3ccc(C(=O)OC)c(C(=O)OC)c3)OOC3(O2)C2CC4CC(C2)CC3C4)cc1C(=O)OC (stereo not drawn) [OZ106, Adamantane-2-spiro-3′-5′,5′-bis[3′,4′-di(methoxycarbonyl)phenyl]-1′,2′,4′-trioxolane] |  | 5.3 | 0/0/0% | 5.0 days | 0/0/0% | 5.3 | 0/0/0% |  | 1.7 (≈ 2.93 nM) | 2.2 (≈ 3.79 nM)
3 | FC1(c2ccccc2)CCC2(CC1)OOC1(O2)C2CC3CC(C2)CC1C3 (stereo not drawn) [OZ274] |  |  |  | 7.0/ND days | 11/ND % |  |  |  | 5.7 (≈ 15.9 nM) | 5.1 (≈ 14.2 nM)
4 | CCOC(=O)c1ccc(C2(c3ccc(C(=O)OCC)cc3)OOC3(O2)C2CC4CC(C2)CC3C4)cc1 (stereo not drawn) [OZ125, Adamantane-2-spiro-3′-5′,5′-bis[4′-(ethoxycarbonyl)phenyl]-1′,2′,4′-trioxolane] | > 100 | 5.3 | 8% | 5.7 days | 0% | 6.0 | 0% | 68 (≈ 138 nM) |  | 
5 | O=C(O)c1ccccc1C(=O)N1CCC2(CC1)OOC1(O2)C2CC3CC(C2)CC1C3 (stereo not drawn) [OZ132, Adamantane-2-spiro-3′-8′-(2′-carboxybenzoyl)-1′,2′,4′-trioxa-8′-azaspiro[4.5]decane] |  | 6.3 | 38% | 5.7 days | 0% | 6.3 | 40% |  | > 10 | 9.8 (≈ 23.7 nM)
6 | O=C(NO)[C@H]1CC[C@]2(CC1)OOC1(O2)C2CC3CC(C2)CC1C3 (stereo partly drawn) [OZ116] |  | 7.7 | 97% | 8.3 days | 96% | 8.0 | 96% |  | 3.3 (≈ 10.2 nM) | 4.2 (≈ 13 nM)
7 | CC(=O)OC[C@H]1CC[C@]2(CC1)OOC1(O2)C2CC3CC(C2)CC1C3 (stereo partly drawn) [OZ118] | 0.24 (≈ 0.713 nM) | 7.0 | 99.0% | 8.0 days | 98% | 8.3 | 99.57% | 1 (≈ 2.97 nM) |  | 
8 | O=C(C[C@H]1CC[C@]2(CC1)OOC1(O2)C2CC3CC(C2)CC1C3)N1CCCCC1 (stereo partly drawn) [OZ218] | 3 (≈ 7.7 nM) | 10.0 | 98% | 14.3 days | 99.30% | 9.0 | 99.68% | 2 (≈ 5.13 nM) |  | 
9 | Fc1ccc(NC2CCC3(CC2)OOC2(O3)C3CC4CC(C3)CC2C4)cc1 (stereo not drawn) [OZ201] |  | 13 | 100/100/100% | 10.3 days | 100/100/100% | 25 | 100/100/100% |  | 3.1 (≈ 8.3 nM) | 2 (≈ 5.36 nM)
10 | CC(=O)NC[C@H]1CC[C@]2(CC1)OOC1(O2)C2CC3CC(C2)CC1C3 (stereo partly drawn) [OZ262] | 0.84 (≈ 2.5 nM) | 11.7 | 96% | 12.3 days | 98% | 10.0 | 99.39% | 0.63 (≈ 1.88 nM) |  | 
11 | CCS(=O)(=O)CCN1CCC2(CC1)OOC1(O2)C2CC3CC(C2)CC1C3 (stereo not drawn) [OZ200, Adamantane-2-spiro-3′-8′-[2′-(ethylsulfonyl)ethyl]-1′,2′,4′-trioxa-8′-azaspiro[4.5]decane] |  | 7.0 | 81% | 7.3 days | 78% | 8.0 | 92% |  | 2.9 (≈ 7.52 nM) | 1 (≈ 2.59 nM)
12 | O=C1c2ccccc2C(=O)N1C[C@H]1CC[C@@]2(CC1)OOC1(O2)C2CC3CC(C2)CC1C3 (stereo partly drawn) [OZ167] |  | 6.0 | 0% | 6.0 days | 6% | 7.3 | 97% |  | > 10 | 6.7 (≈ 15.8 nM)
13 | O=C(O)C1(c2ccccc2)CCC2(CC1)OOC1(O2)C2CC3CC(C2)CC1C3 (stereo not drawn) [OZ99] |  | 6.3 | 30% | 5.7 days | 40% | 6.3 | 36% |  | 27 (≈ 70.2 nM) | 77 (≈ 200 nM)
14 | O=C(NC[C@H]1CC[C@]2(CC1)OOC1(O2)C2CC3CC(C2)CC1C3)c1ccccc1C(=O)NC[C@H]1CC[C@]2(CC1)OOC1(O2)C2CC3CC(C2)CC1C3 (stereo partly drawn) [OZ230, N,N′-Bis[cis-[adamantane-2-spiro-3′-1′,2′,4′-trioxaspiro[4.5]dec-8′-yl]methyl]-1,2-benzenedicarboxamide] |  | 5.3 | 0/0/0% | 5.7 days | 0/0/0% | 5.7 | 0/0/0% |  | 3.6 (≈ 5.02 nM) | 3.9 (≈ 5.44 nM)
15 | CN(C)C(=O)N[C@H]1CC[C@]2(CC1)OOC1(O2)C2CC3CC(C2)CC1C3 (stereo partly drawn) [OZ187] |  | 7.7 | 77% | 10.0 days | 94% | 7.0 | 77% |  | 6.8 (≈ 19.4 nM) | 4 (≈ 11.4 nM)
16 | O=S(=O)(c1cccc2cccnc12)N1CCC2(CC1)OOC1(O2)C2CC3CC(C2)CC1C3 (stereo not drawn) [OZ114, Adamantane-2-spiro-3′-8′-(8′-quinolinesulfonyl)-1′,2′,4′-trioxa-8′-azaspiro[4.5]decane] |  | 5.7 | 0% | 6.0 days | 0% | 8.7 | 99.64% |  | 2.2 (≈ 4.82 nM) | 3.7 (≈ 8.1 nM)
17 | O=S(=O)(C[C@H]1CC[C@]2(CC1)OOC1(O2)C2CC3CC(C2)CC1C3)c1ccccc1 (stereo partly drawn) [OZ210] | 1.6 (≈ 3.82 nM) | 9.3 | 99.23% | 8.0 days | 77% | 10.3 | 99.94% | 1.4 (≈ 3.34 nM) |  | 
